Laboratory results published in US8470755B1, “Liquid cleaning and disinfecting compositions comprising a zinc inorganic salt” (The Procter & Gamble Company, priority 2012, dated 2013).

Key:
Format in all cases: cell-based
[1] = tested on: Pseudomonas Aeruginosa (PA) CIP 82.113; test: ASTM E2149 shake flask method, antibacterial log reduction, Ps. aeruginosa; details: Ps Aeroginosa; tested active concentration 10%; log(T0/T1h), 1 hour
Procedure: (§1) The antibacterial efficacy was tested following the below Shake Flask protocol:
(§2) • Microbial strains: Staphylococcus aureus (SA) CIP 4.83, Escherichia Coli (EC) CIP 53.126, Pseudomonas Aeruginosa (PA) CIP 82.113 • Culture media: TSA medium-Neutralizing medium (Dey Engley Broth)-Buffered Peptoned water (BPW-F)-Shake flask bottles-Physiological water • Incubator Shake Flask Protocol: ASTM E2149 Shake Flask Method • Inoculum counting: • For each strain, prepare an inoculum at 0.5 Mc Farland (McF). Dilute 1 ml of the inoculum with 9 ml of physiological water. Select 1 ml of the resulting dilution and dilute again with 9 ml of physiological water. Execute 5 dilution steps accordingly so that a 10^−5 dilution is obtained. • Recover 100 microliter of the 10^−5 dilution and inoculate 2 petri dishes. • Add 20 ml of TSA medium. • Incubate at 32+/−0.5° C. during 24 hours • Negative control: • Put 5 ml of SA, EC or PA inoculums into a shake flask. Add 45 ml of pure BPW-F solution. • Dilute twice in neutralizing medium: Recover 1 ml of the pure solution and add 9 ml of the neutralizing medium (=10^−1 and 10^−2 dilution). • Wait 5 minutes and put 100 microliter of the pure solution and the 10^−2 dilution into 2 petri dishes, add 20 ml of TSA medium (T0). • Do the same operation after 1 hour (T1h). • Incubate at 32+/−0.5° C. during 24 hours • Sample testing: • Prepare a solution at a specified concentration (see data tables for actual concentrations as 100% active—final volume 50 ml). For example, for a 50% (V/V), dilute 25 ml of product with 20 ml of BPW-F and 5 ml of the inoculums (SA, EC or PA) at 0.5 McF. • Dilute twice in neutralizing medium: Recover 1 ml of the pure solution and add 9 ml of the neutralizing medium (=10^−1 and 10^−2 dilution). • Wait 5 minutes and put 100 microliter of the pure solution and the 10^−2 dilution into 2 petri dishes, add 20 ml of TSA medium (T0). • Do the same operation after 1 hour (T1h). • Incubate at 32+/−0.5° C. during 24 hours • Calculation of log reduction: • The log reduction is calculated as log(T0/T1h)

[2] = tested on: Escherichia Coli (EC) CIP 53.126; test: ASTM E2149 shake flask method, antibacterial log reduction, E. coli; details: log(T0/T1h), 1 hour
Procedure: as §1, §2

[3] = tested on: Staphylococcus aureus (SA) CIP 4.83; test: ASTM E2149 shake flask method, antibacterial log reduction, St. aureus; details: log(T0/T1h), 1 hour
Procedure: as §1, §2

[4] = tested active concentration 0.1%
[5] = St. Aureus, tested active concentration 0.1%

| Molecule | Log reduction (tested active concentration) [1] | Log reduction (tested active concentration) [2, 4] | Log reduction (tested active concentration) [3, 5] | Log reduction (tested active concentration) ([2]; tested active concentration 1%) | Log reduction (tested active concentration) ([3]; St Aureus, tested active concentration 1%) |
| --- | --- | --- | --- | --- | --- |
| O=C([O-])[O-].[Zn+2] [Zn2+, zinc carbonate] | 0.27 (10%) | 0.17 (0.1%) | 0.18 (0.1%) | – | – |
| CCCCCCCCCCCC(=O)NCCC[N+](C)(C)[O-] [CAP AO, cocoamidopropyl dimethyl amine oxide] | 1.3 (10%) | – | – | 0.37 (1%) | 0.88 (1%) |
| linear C12-14 alkyl dimethyl amine oxide [Linear AO] | 2.10 (10%) | 0.41 (0.1%) | 0.73 (0.1%) | – | – |
| methyl branched dimethyl amine oxide [Shell type 1 Branched AO ( N terminal)] | 3.98 (10%) | – | 4.06 (0.1%) | – | – |
